The results in this text go back to BindingDB's records for doi:10.1021/acs.jmedchem.8b00370 (Genentech, 2018).

The assay concerns the target Mitogen-activated protein kinase kinase kinase 12 (Homo sapiens) (UniProt Q12852). Description: Inhibition of DLK (unknown origin) using myelin basic protein as substrate preincubated for 15 mins measured after 30 mins in presence of [gamma-32P]ATP by scintillation counting.

Mitogen-activated protein kinase kinase kinase 12 (Homo sapiens), sequence (Q12852 whole entry, looked up): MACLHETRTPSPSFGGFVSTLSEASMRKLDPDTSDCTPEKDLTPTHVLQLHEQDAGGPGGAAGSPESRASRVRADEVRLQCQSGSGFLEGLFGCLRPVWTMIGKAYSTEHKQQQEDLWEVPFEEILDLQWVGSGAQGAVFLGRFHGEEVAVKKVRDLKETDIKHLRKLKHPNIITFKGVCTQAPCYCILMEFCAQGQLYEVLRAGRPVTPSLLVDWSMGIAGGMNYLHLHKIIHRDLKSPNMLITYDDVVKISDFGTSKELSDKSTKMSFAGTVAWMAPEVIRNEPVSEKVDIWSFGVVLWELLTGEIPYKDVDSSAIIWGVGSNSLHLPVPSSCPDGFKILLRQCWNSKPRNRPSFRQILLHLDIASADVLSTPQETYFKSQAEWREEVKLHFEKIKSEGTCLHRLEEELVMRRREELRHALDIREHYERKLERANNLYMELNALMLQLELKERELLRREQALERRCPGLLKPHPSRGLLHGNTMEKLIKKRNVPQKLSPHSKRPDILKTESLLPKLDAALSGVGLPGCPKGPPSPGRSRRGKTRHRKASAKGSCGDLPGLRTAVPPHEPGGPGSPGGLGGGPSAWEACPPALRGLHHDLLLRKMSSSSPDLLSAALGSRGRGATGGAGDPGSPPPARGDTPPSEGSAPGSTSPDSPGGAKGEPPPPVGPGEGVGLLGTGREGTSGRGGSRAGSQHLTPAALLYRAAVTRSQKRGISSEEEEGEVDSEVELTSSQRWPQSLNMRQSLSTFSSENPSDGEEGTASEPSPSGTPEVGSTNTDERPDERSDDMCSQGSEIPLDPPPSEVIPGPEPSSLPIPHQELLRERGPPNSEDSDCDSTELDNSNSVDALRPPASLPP

Take `CC(C)n1c2ccc(Oc3ncccn3)cc2c2c3c(c4c(c21)CCc1nn(C)cc1-4)C(=O)NC3`: the IC50 (usually the concentration that inhibits the measured activity by half) stood at 1 nM.
